# Experimental data from US8653104B2, “PTEN inhibitor or Maxi-K channels opener” (Otsuka Pharmaceuticals Co., Ltd., priority 2003, dated 2014).
# How the values were obtained:
# Maxi-K channels = target: T1, Maxi-K channels (Homo sapiens, UniProt Q12791); test: Whole-cell K+ current recording (patch clamp) in SK-N-SH cells; format: cell-based
# T1 construct: endogenous in cells; host or cells: SK-N-SH (KCLB 30011) human neuroblastoma cells
# Method: (§1) Cell cultures: SK-N-SH (KCLB 30011, human brain neuroblastoma) cells were cultured in Eagle's minimum essential medium (MEM) with 2 mM L-glutamine and 1.0 mM sodium pyruvate supplemented with 10% heat-inactivated fetal bovine serum. Cells were grown to confluence at 37° C. in 5% CO2 and used for experiments at no greater than passage 20.
# Recording of the whole-cell K^+ current: The experiments were performed in a small bath (0.5 ml) mounted on the stage of an inverted microscope (Nikon model TE300, Tokyo, Japan) perfused continuously at a flow rate of 1 ml/min. Using the whole-cell configuration of the patch clamp technique, the K^+ currents were recorded at room temperature (20˜22° C.) with an Axopatch-200B patch clamp amplifier (Axon Instruments, Foster City, Calif.). Currents were sampled at 1 to 10 kHz after anti-alias filtering at 0.5 to 5 kHz. Data acquisition and command potentials were controlled by pClamp 6.0.3 software (Axon Instruments, Foster City, Calif.). To ensure the voltage clamp quality, electrode resistance was kept below 3 MΩ. Junction potentials were zeroed with the electrode in the standard bath solution. Gigaohm seal formation was achieved by suction and, after establishing the whole cell configuration, the capacitive transients elicited by symmetrical 10 mV voltage clamp steps from −80 mV were recorded at 50 kHz for calculation of cell capacitance. The normal bath solution for the whole-cell recordings was: NaCl 130 mM, KCl 5 mM, MgCl2 1.2 mM, CaCl2 1.8 mM, HEPES 10 mM, glucose 5.2 mM and the pH was adjusted to 7.4 with NaOH. Pipettes were filled with KCl 140 mM, MgCl2 0.5 mM, CaCl2 0.1 mM, ethylenebis(oxonitrilo) tetra-acetic acid (EGTA) 0.09 mM, HEPES 10 mM, glucose 10 mM and the pH was adjusted to 7.4 with KOH.
# After establishment of whole-cell recordings and collecting control recordings for approximately 5 minutes until the current elicited by depolarization stabilized, cilostazol was applied to the bath. In the experiments, using glibenclamide or iberiotoxin, cilostazol was applied to the bath about 20 minutes after administering glibenclamide or iberiotoxin.
# PTEN = test: Suppression of TNF-α-stimulated increase in PTEN phosphorylation level, Western blot in SK-N-SH cells; format: cell-based, human; conditions: cilostazol 1, 10 and 100 μM given 3 hours before TNF-α (50 ng/ml, one hour)
# Method: as §1
# Preparation of TNF-α solution: TNF-α (Upstate Biotechnology, Inc., Lake Placid, N.Y.) was dissolved in the phosphate buffered saline as a 10 μg/ml stock solution.
# Western blot analysis: The confluent cells received MEM medium with 1% FBS plus cilostazol 3 hours prior to stimulation with TNF-α and then were exposed to TNF-α for one hour.
# The cells were lysed in lysis buffer containing 50 mM Tris-Cl (pH 8.0), 150 mM NaCl, 0.02% sodium azide, 100 μg/ml phenylmethylsulfonyl fluoride, 1 μg/ml aprotinin and 1% Triton X-100. […] The signals of the bands were quantified using a GS-710 Calibrated imaging Densitomerter (Bio-Rad Laboratories, Hercules, Calif.). The results were expressed as a relative density. […]
# Statistical analysis: The results are expressed as means±SEM. Statistical differences between groups were determined by Student's t-test. p<0.05 was considered to be significant.
# T1 sequence (Q12791 whole entry): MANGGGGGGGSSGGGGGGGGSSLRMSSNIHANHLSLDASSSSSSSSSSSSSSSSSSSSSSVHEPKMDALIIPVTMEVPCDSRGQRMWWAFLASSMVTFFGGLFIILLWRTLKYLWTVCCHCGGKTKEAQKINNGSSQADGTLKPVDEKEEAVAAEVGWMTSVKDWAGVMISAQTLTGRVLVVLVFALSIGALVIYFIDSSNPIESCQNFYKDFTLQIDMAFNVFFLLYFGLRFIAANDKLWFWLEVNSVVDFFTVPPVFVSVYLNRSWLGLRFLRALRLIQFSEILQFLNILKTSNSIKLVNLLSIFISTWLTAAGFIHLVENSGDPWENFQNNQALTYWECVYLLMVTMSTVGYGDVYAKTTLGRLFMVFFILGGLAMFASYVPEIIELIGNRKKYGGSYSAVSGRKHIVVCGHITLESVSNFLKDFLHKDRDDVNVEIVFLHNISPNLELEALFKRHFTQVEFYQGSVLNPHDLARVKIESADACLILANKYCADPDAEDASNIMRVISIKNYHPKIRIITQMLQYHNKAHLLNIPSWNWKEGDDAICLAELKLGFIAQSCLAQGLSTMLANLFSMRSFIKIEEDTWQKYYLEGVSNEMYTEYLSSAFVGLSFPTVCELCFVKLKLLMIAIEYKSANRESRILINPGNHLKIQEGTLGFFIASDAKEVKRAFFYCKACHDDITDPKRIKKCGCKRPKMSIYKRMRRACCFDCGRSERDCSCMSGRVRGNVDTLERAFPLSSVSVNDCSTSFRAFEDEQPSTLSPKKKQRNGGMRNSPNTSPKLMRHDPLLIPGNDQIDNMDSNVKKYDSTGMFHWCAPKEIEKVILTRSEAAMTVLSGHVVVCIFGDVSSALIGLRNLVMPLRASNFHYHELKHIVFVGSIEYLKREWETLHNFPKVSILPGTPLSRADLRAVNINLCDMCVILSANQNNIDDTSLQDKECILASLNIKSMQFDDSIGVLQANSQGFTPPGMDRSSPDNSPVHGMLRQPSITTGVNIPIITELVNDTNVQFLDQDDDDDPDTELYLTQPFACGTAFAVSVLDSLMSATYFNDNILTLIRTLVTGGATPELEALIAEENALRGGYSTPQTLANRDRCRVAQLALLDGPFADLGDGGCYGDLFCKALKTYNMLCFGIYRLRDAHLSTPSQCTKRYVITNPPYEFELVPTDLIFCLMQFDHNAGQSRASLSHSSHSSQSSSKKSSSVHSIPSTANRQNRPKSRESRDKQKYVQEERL
molecule,measurement,setting,value
"COc1ccc(Cl)cc1C(=O)NCCc1ccc(S(=O)(=O)NC(=O)NC2CCCCC2)cc1 [glibenclamide, 5-chloro-N-[2-[4-[[[(cyclohexyl-amino)carbonyl]amino]sulfonyl]phenyl]ethyl]-2-methoxy-benzamide]",block of the cilostazol-increased K+ current,Maxi-K channels; glibenclamide 10 μM added to the bath,not
same,"Maxi-K channel-mediated currents, blocker alone",Maxi-K channels; glibenclamide alone,could not increase
"O=C1CCc2cc(OCCCCc3nnnn3C3CCCCC3)ccc2N1 [cilostazol, 6-[4-(1-cyclohexyl-1H-tetrazol-5-yl)butoxy]-3,4-dihydro-carbostyril]",TNF-α-stimulated increased PTEN phosphorylation level,PTEN,concentration-dependently suppressed
same,Maxi-K channel-mediated currents in co-existence of glibenclamide,Maxi-K channels; cilostazol applied about 20 minutes after glibenclamide,increase in maxi-K channel-medicated currents was given
same,whole-cell calcium activated K+ current,Maxi-K channels; cilostazol applied to the bath alone,significantly increased
same,K+ current when added together with iberiotoxin,"Maxi-K channels; cilostazol together with iberiotoxin, compared with iberiotoxin alone",increase of the current was rather less than iberiotoxin alone
iberiotoxin,block of the cilostazol-increased K+ current,Maxi-K channels; iberiotoxin 100 nM added to the bath,reversibly blocked
